{"source": "paper PMC7213079", "about": "“Hit Identification of New Potent PqsR Antagonists as Inhibitors of Quorum Sensing in Planktonic and Biofilm Grown Pseudomonas aeruginosa” (Frontiers in Chemistry, 2020)", "assay_type_in_all_cases": "cell-based, Pseudomonas aeruginosa", "key": {"PA14": {"system": "PA14", "assay": "AQ (HHQ, PQS) quantification by LC-MS/MS in planktonic cultures, PA14", "conditions": "3 x IC50", "protocol": "(§1) Since PqsR controls expression of the pqsABCDE operon encoding the enzymes required for different stages of AQ biosynthesis, quantification of HHQ, and PQS provides a direct measurement for inhibition of the biosynthetic pathway. Compound 40 was evaluated for its effect on AQ biosynthesis at a concentration three times the corresponding IC50 values for PAO1-L and PA14.\n(§2) Figure 5 Effect of compound 40 on AQ production: Quantification of AQ concentrations after treatment with the PqsR inhibitor 40 at 3x IC50 value for PAO1-L and PA14 each strain. The graph represents the average of three independent experiments carried out in triplicate (n = 9) for both strains.\n(§3) For each test sample, 100µl of sterile filtered supernatant (the same preparation as for pyocyanin) was spiked with 10µl of an internal standard solution (10µM d4-PQS in MeOH), and diluted with water to a total volume of 500µl. […]\n(§4) screening of the LC eluent for specific AQ analytes. Where chromatographic peaks for HHQ and PQS were detected, a peak area was determined and analyte peak area/internal standard peak area calculated.\n(§5) AQ quantification in biofilm cultures: […]\n(§6) For this experiment, the P. aeruginosa PAO1-L strain and M9 minimal medi um were used. […] The supernatant was col lected and the AQ extraction and quantification were performed following the LC MS/MS protocol described above . […]"}, "PAO1-L biofilms": {"system": "PAO1-L biofilms", "assay": "Biofilm viability assay (LIVE/DEAD BacLight, CLSM)", "conditions": "6 and 24 h", "method": "PAO1-L biofilms were established for 2 days before challenging with these treatments for 6 and 24 h followed by Live/Dead staining.\nFigure 7 Bar chart showing PAO1-L biofilm viability quantified after treatment with different conditions for 6 or 24 h.\nMature pre-established P. aeruginosa PAO1-L biofilms were grown to assess the effects of co-\nFor these assays, PAO1-L biofilms were grown on round glass coverslips (8 mm, #1.5 thickness) under flow conditions (20 rpm) in FAB containing 10\nmM glucose medium inoculated with a diluted (OD600nm = 0.01) bacterial suspension from overnight\ncultures in LB. Biofilms were cultivated at 30°C for 2 days with medium replacement every day."}, "PAO1-L biofilm cultures": {"system": "PAO1-L biofilm cultures", "assay": "AQ quantification in biofilm cultures", "conditions": "M9 minimal medium, 10 μM, 18 h, versus DMSO control", "text": "Biofilms are a major challenge in the treatment of chronic P. aeruginosa infections because of their resilience and protection of bacteria from environmental stresses such as those posed by the host immune system and antimicrobial agents (Flemming et al., [2007]; Rybtke et al., [2015]). Many genes that are involved in biofilm formation are directly linked to pqs QS signaling (Rampioni et al., [2016]; Lin et al., [2018]). To evaluate the effect of 40 on AQ signaling in biofilm cultures, PAO1-L was grown in M9 minimal medium and challenged with either DMSO control or of 40 (10 μM). Following incubation and cell removal, supernatants were subjected to LC/MS-MS analysis.\nFigure 6 Quantification of AQ concentrations in PAO1-L biofilm cultures treated with 40 (10 μM). […] Biofilms were grown in M9 minimal medium for 18 h in 24-well glass bottom plates and supernatants extracted for AQ analysis. […]\nas §4, §5, §6"}, "PAO1-L": {"system": "PAO1-L", "assay": "AQ (HHQ, PQS) quantification by LC-MS/MS in planktonic cultures, PAO1-L", "conditions": "3 x IC50", "protocol": "as §1, §2, §3, §4, §5, §6"}}, "note": "“Also recorded” adds a separate entry of the source."}
{"smiles": "Cn1c2ccccc2c2nnc(SCC(=O)Nc3ccc(Oc4ccccn4)cc3)nc21", "note": "[Compound 40, 2-((5-Methyl-5H-[1,2,4]triazino[5,6-b]indol-3-yl)thio)-N-(4-(pyridin-2-yloxy)phenyl)acetamide]", "values": [{"measurement": "production of HHQ and PQS", "setting": "PA14", "result": "substantially reduce"}, {"measurement": "biofilm viability", "setting": "PAO1-L biofilms; pre-established PAO1-L biofilms (48 h), 40 at 10 μM", "result": "growth of the community increased; also recorded: slight increase in viability"}, {"measurement": "biofilm killing in combination with CIP", "setting": "PAO1-L biofilms; pre-established PAO1-L biofilms, 40 10 μM combined with ciprofloxacin 60 μg/mL", "result": "did not result in an enhanced biofilm killing"}, {"measurement": "biosynthesis of AQ signals in biofilm cultures", "setting": "PAO1-L biofilm cultures", "result": "effectively inhibit; also recorded: drastically reduced"}, {"measurement": "production of HHQ and PQS", "setting": "PAO1-L", "result": "substantially reduce"}]}
